Measurements published in patent publication US10227357B2, “Compounds and methods for kinase modulation, and indications therefor” (Plexxikon Inc., priority 2012, dated 2019).

How the values were obtained:
c-kit mutant D816V = target: T1, c-kit mutant D816V (Homo sapiens, UniProt P10721, D816V/DEL694-753); experiment: c-Kit mutant D816V biochemical assay, AlphaScreen; settings: c-kit D816V biochemical inhibitory activity; read-out: Biochemical activity (IC50 μM) Kit D816V
T1 construct: residues 551-934, kinase insertion domain residues 694-753 deleted; 6x-histidine (N); made in house; host or cells: E. coli Arctic Express (DE3) RIL (Stratagene)
How it was run: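 Purified His-tagged c-Kit D816V (E. coli-expressed) assayed in 25 mM HEPES pH 7.2 with Mg/Mn, 5% DMSO and 10 μM ATP, 30 min at room temperature, 8-point 1:3 dilutions. Phosphorylation detected by AlphaScreen with streptavidin donor and PY20 acceptor beads; IC50 from signal versus concentration.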

c-kit kinase = target: T2, c-kit kinase (Homo sapiens, UniProt P10721); experiment: c-Kit biochemical assay, AlphaScreen, 10 μM ATP; settings: c-kit biochemical inhibitory activity; read-out: Biochemical activity (IC50 μM) Kit
T2 construct: The c-kit (or kinase domain thereof) is an active kinase in AlphaScreen; poly-Histidine tag (in-house protein only) (cleaved yes); host or cells: E. coli BL21(DE3)RIL, co-expressed with PTP1B
How it was run: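 His-tagged c-Kit expressed in E. coli with co-expressed PTP1B (dephosphorylated), tag removed; 0.1 ng per reaction with biotinylated-peptide substrate in 50 mM HEPES pH 7.2, 5 mM MgCl2, 5 mM MnCl2, 5% DMSO, 10 μM ATP, 1 h at room temperature. Phosphorylation detected by AlphaScreen (streptavidin donor, PY20 acceptor beads); IC50 from 8-point 1:3 dilution series.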

T1 sequence (P10721 with tags, fused parts or gaps DEL694-753/D816V): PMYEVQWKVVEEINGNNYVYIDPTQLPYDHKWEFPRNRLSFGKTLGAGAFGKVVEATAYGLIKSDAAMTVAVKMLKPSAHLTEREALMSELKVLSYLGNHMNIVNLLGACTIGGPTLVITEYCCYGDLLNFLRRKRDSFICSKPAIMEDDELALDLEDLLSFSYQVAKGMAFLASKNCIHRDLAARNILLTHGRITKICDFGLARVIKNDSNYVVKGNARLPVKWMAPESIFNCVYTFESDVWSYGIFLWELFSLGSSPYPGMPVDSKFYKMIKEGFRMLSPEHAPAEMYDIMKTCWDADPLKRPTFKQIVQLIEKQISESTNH
T2 sequence (P10721 26-976): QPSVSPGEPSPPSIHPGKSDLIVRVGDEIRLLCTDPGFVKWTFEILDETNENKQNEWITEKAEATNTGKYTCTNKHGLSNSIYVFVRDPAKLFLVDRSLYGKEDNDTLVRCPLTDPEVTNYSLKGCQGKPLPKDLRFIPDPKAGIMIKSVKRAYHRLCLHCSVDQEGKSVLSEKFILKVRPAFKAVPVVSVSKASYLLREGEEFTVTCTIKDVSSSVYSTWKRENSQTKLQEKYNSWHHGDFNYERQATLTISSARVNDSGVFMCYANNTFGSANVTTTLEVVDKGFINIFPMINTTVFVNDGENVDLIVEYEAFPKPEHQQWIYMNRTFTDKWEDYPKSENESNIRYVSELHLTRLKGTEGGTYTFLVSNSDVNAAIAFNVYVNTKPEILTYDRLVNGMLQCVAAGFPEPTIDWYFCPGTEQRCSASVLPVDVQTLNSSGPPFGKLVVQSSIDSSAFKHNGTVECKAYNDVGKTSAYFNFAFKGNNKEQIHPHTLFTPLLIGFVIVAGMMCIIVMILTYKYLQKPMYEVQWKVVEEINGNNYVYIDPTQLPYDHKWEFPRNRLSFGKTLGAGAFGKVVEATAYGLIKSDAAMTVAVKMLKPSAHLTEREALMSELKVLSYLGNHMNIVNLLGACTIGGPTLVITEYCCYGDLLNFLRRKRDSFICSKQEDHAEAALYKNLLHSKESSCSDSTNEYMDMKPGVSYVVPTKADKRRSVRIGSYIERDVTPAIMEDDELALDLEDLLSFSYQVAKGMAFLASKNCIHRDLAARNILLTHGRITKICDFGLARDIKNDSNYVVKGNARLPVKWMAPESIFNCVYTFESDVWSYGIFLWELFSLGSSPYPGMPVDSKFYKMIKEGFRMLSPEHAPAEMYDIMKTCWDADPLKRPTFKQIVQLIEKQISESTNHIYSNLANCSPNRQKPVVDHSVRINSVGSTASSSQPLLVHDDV

Structure (SMILES) | IC50 (c-kit mutant D816V) [µM] | IC50 (c-kit kinase) [µM]
CCS(=O)(=O)Nc1cccc(-c2ncnc3[nH]c(-c4ccc(F)cc4)cc23)c1 [P-0407, N-[3-[6-(4-fluorophenyl)-7H-pyrrolo[2,3-d]pyrimidin-4-yl]phenyl]ethanesulfonamide] | 1 to 10 | 1 to 10
O=S(=O)(Nc1ccc(-c2ncnc3[nH]c(-c4ccc(F)cc4)cc23)cc1F)c1ccc(F)cc1 [P-0408, 4-fluoro-N-[2-fluoro-4-[6-(4-fluorophenyl)-7H-pyrrolo[2,3-d]pyrimidin-4-yl]phenyl]benzenesulfonamide] | 1 to 10 | 10 to 200
COc1ccc(S(=O)(=O)Nc2ccc(-c3ncnc4[nH]c(-c5ccc(F)cc5)cc34)cc2F)cc1 [P-0409, N-[2-fluoro-4-[6-(4-fluorophenyl)-7H-pyrrolo[2,3-d]pyrimidin-4-yl]phenyl]-4-methoxy-benzenesulfonamide] | 1 to 10 | 10 to 200
O=S(=O)(Nc1ccc(-c2ncnc3[nH]c(-c4ccc(F)cc4)cc23)cc1F)C1CC1 [P-0410, N-[2-fluoro-4-[6-(4-fluorophenyl)-7H-pyrrolo[2,3-d]pyrimidin-4-yl]phenyl]cyclopropanesulfonamide] | 0.0001 to 1 | 1 to 10
O=S(=O)(Nc1cccc(-c2ncnc3[nH]c(-c4ccc(F)cc4)cc23)c1)C1CC1 [P-0413, N-[3-[6-(4-fluorophenyl)-7H-pyrrolo[2,3-d]pyrimidin-4-yl]phenyl]cyclopropanesulfonamide] | 1 to 10 | 1 to 10
CS(=O)(=O)Nc1cccc(-c2ncnc3[nH]c(-c4ccc(F)cc4)cc23)c1 [P-0414, N-[3-[6-(4-fluorophenyl)-7H-pyrrolo[2,3-d]pyrimidin-4-yl]phenyl]methanesulfonamide] | 1 to 10 | 1 to 10
Fc1ccc(-c2cc3c(-c4ccc(NCc5ccc(C(F)(F)F)nc5)nc4)ncnc3[nH]2)cc1 [P-0415, 5-[6-(4-fluorophenyl)-7H-pyrrolo[2,3-d]pyrimidin-4-yl]-N-[[6-(trifluoromethyl)-3-pyridyl]methyl]pyridin-2-amine] | 1 to 10 | 0.0001 to 1
Nc1ccc(-c2ncnc3[nH]c(-c4ccc(F)cc4)cc23)cc1 [P-0416, 4-[6-(4-fluorophenyl)-7H-pyrrolo[2,3-d]pyrimidin-4-yl]aniline] | 0.0001 to 1 | 0.0001 to 1
NS(=O)(=O)c1ccc(-c2ncnc3[nH]c(-c4ccc(F)cc4)cc23)cc1 [P-0418, 4-[6-(4-fluorophenyl)-7H-pyrrolo[2,3-d]pyrimidin-4-yl]benzenesulfonamide] | 0.0001 to 1 | 1 to 10
CCCCS(=O)(=O)Nc1ccc(-c2ncnc3[nH]c(-c4ccc(F)cc4)cc23)cc1 [P-0419, N-[4-[6-(4-fluorophenyl)-7H-pyrrolo[2,3-d]pyrimidin-4-yl]phenyl]butane-1-sulfonamide] | 0.0001 to 1 | 10 to 200
O=S(=O)(Nc1ccc(-c2ncnc3[nH]c(-c4ccc(F)cc4)cc23)cc1)C1CC1 [P-0420, N-[4-[6-(4-fluorophenyl)-7H-pyrrolo[2,3-d]pyrimidin-4-yl]phenyl]cyclopropanesulfonamide] | 0.0001 to 1 | 10 to 200
COc1ccc(CNS(=O)(=O)c2ccc(-c3ncnc4[nH]c(-c5ccc(F)cc5)cc34)cc2)cc1 [P-0423, 4-[6-(4-fluorophenyl)-7H-pyrrolo[2,3-d]pyrimidin-4-yl]-N-[(4-methoxyphenyl)methyl]benzenesulfonamide] | 10 to 200 | 10 to 200
Cc1ccc(NS(=O)(=O)c2ccc(-c3ncnc4[nH]c(-c5ccc(F)cc5)cc34)cc2)cc1 [P-0426, 4-[6-(4-fluorophenyl)-7H-pyrrolo[2,3-d]pyrimidin-4-yl]-N-(p-tolyl)benzenesulfonamide] | 1 to 10 | 10 to 200
O=S(=O)(NC1CC1)c1cccc(-c2ncnc3[nH]c(-c4ccc(F)cc4)cc23)c1 [P-0429, N-cyclopropyl-3-[6-(4-fluorophenyl)-7H-pyrrolo[2,3-d]pyrimidin-4-yl]benzenesulfonamide] | 0.0001 to 1 | 0.0001 to 1
CNS(=O)(=O)c1ccc(-c2ncnc3[nH]c(-c4ccc(F)cc4)cc23)cc1 [P-0430, 4-[6-(4-fluorophenyl)-7H-pyrrolo[2,3-d]pyrimidin-4-yl]-N-methyl-benzenesulfonamide] | 0.0001 to 1 | 1 to 10
CCS(=O)(=O)Nc1ccc(-c2ncnc3[nH]c(-c4ccc(F)cc4)cc23)cc1 [P-0431, N-[4-[6-(4-fluorophenyl)-7H-pyrrolo[2,3-d]pyrimidin-4-yl]phenyl]ethanesulfonamide] | 0.0001 to 1 | 0.0001 to 1
CS(=O)(=O)Nc1ccc(-c2ncnc3[nH]c(-c4ccc(F)cc4)cc23)cc1 [P-0432, N-[4-[6-(4-fluorophenyl)-7H-pyrrolo[2,3-d]pyrimidin-4-yl]phenyl]methanesulfonamide] | 0.0001 to 1 | 0.0001 to 1

Structure (SMILES) | IC50 (c-kit mutant D816V) [µM] | IC50 (c-kit kinase) [µM]
Cc1ccc(S(=O)(=O)Nc2ccc(-c3ncnc4[nH]c(-c5ccc(F)cc5)cc34)cc2)cc1 [P-0433, N-[4-[6-(4-fluorophenyl)-7H-pyrrolo[2,3-d]pyrimidin-4-yl]phenyl]-4-methyl-benzenesulfonamide] | 0.0001 to 1 | 0.0001 to 1
CCCS(=O)(=O)Nc1cccc(-c2ncnc3[nH]c(-c4ccc(F)cc4)cc23)c1 [P-0434, N-[3-[6-(4-fluorophenyl)-7H-pyrrolo[2,3-d]pyrimidin-4-yl]phenyl]propane-1-sulfonamide] | 10 to 200 | 1 to 10
Cc1n[nH]c2ncnc(-c3ccc(NS(=O)(=O)c4ccc(C(F)(F)F)cc4)cc3)c12 [P-0438, N-[4-(3-methyl-1H-pyrazolo[3,4-d]pyrimidin-4-yl)phenyl]-4-(trifluoromethyl)benzenesulfonamide] | 0.0001 to 1 | 1 to 10
Cc1n[nH]c2ncnc(-c3ccc(NS(=O)(=O)c4ccc(F)cc4)cc3)c12 [P-0439, 4-fluoro-N-[4-(3-methyl-1H-pyrazolo[3,4-d]pyrimidin-4-yl)phenyl]benzenesulfonamide] | 0.0001 to 1 | 1 to 10
Cc1n[nH]c2ncnc(-c3ccc(NS(=O)(=O)c4cccc(F)c4)cc3)c12 [P-0440, 3-fluoro-N-[4-(3-methyl-1H-pyrazolo[3,4-d]pyrimidin-4-yl)phenyl]benzenesulfonamide] | 0.0001 to 1 | 1 to 10
Cc1n[nH]c2ncnc(-c3ccc(NS(=O)(=O)c4ccc(C(F)(F)F)nc4)cc3)c12 [P-0441, N-[4-(3-methyl-1H-pyrazolo[3,4-d]pyrimidin-4-yl)phenyl]-6-(trifluoromethyl)pyridine-3-sulfonamide] | 0.0001 to 1 | 10 to 200
CCc1ccc(S(=O)(=O)Nc2ccc(-c3ncnc4[nH]nc(C)c34)cc2)cc1 [P-0442, 4-ethyl-N-[4-(3-methyl-1H-pyrazolo[3,4-d]pyrimidin-4-yl)phenyl]benzenesulfonamide] | 0.0001 to 1 | 1 to 10
Cc1n[nH]c2ncnc(-c3ccc(NS(=O)(=O)c4cccc(Cl)c4)cc3)c12 [P-0443, 3-chloro-N-[4-(3-methyl-1H-pyrazolo[3,4-d]pyrimidin-4-yl)phenyl]benzenesulfonamide] | 0.0001 to 1 | 1 to 10
COc1ccc(S(=O)(=O)Nc2ccc(-c3ncnc4[nH]nc(C)c34)cc2)cc1 [P-0444, 4-methoxy-N-[4-(3-methyl-1H-pyrazolo[3,4-d]pyrimidin-4-yl)phenyl]benzenesulfonamide] | 0.0001 to 1 | 1 to 10
Cc1n[nH]c2ncnc(-c3ccc(NS(=O)(=O)c4ccc(Cl)cc4)cc3)c12 [P-0445, 4-chloro-N-[4-(3-methyl-1H-pyrazolo[3,4-d]pyrimidin-4-yl)phenyl]benzenesulfonamide] | 0.0001 to 1 | 1 to 10
Cc1ccc(S(=O)(=O)Nc2ccc(-c3ncnc4[nH]nc(C)c34)cc2)cc1 [P-0447, 4-methyl-N-[4-(3-methyl-1H-pyrazolo[3,4-d]pyrimidin-4-yl)phenyl]benzenesulfonamide] | 0.0001 to 1 | 1 to 10
Cc1ccc(S(=O)(=O)Nc2ccc(-c3ncnc4[nH]cc(C)c34)cc2)cc1 [P-0448, 4-methyl-N-[4-(5-methyl-7H-pyrrolo[2,3-d]pyrimidin-4-yl)phenyl]benzenesulfonamide] | 0.0001 to 1 | 1 to 10
Cc1ccc(S(=O)(=O)Nc2ccc(-c3ncnc4[nH]c(C)c(C)c34)cc2)cc1 [P-0449, N-[4-(5,6-dimethyl-7H-pyrrolo[2,3-d]pyrimidin-4-yl)phenyl]-4-methyl-benzenesulfonamide] | 1 to 10 | 1 to 10
Cc1ccc(S(=O)(=O)Nc2ccc(-c3ncnc4[nH]c(C)nc34)cc2)cc1 [P-0450, 4-methyl-N-[4-(8-methyl-9H-purin-6-yl)phenyl]benzenesulfonamide] | 1 to 10 | 10 to 200
Cc1ccc(S(=O)(=O)NC2CCN(c3ncnc4[nH]c(-c5cnn(C)c5)cc34)CC2)cc1 [P-0451, 4-methyl-N-[1-[6-(1-methylpyrazol-4-yl)-7H-pyrrolo[2,3-d]pyrimidin-4-yl]-4-piperidyl]benzenesulfonamide] | 0.0001 to 1 | 1 to 10
Cn1cc(-c2cc3c(N4CCC(NS(=O)(=O)c5ccc6c(c5)CCC6)CC4)ncnc3[nH]2)cn1 [P-0452, N-[1-[6-(1-methylpyrazol-4-yl)-7H-pyrrolo[2,3-d]pyrimidin-4-yl]-4-piperidyl]indane-5-sulfonamide] | 0.0001 to 1 | 1 to 10
